Reference: patent publication US20230255197A1, “INFLUENCE OF THE MORPHOLOGICAL AND THE STRUCTURAL CHANGES ON THE ANTIMICROBIAL ACTIVITIES OF TITANATE NANOWIRES” (BOARD OF TRUSTEES OF THE UNIVERSITY OF ARKANSAS, priority 2022, published 2023)

Test system: E. coli cells
Test: E. coli growth in LB medium in 96-well plates, cell growth monitored by absorbance at 600 nm
Type: cell-based
Settings: 37° C., O.D. at 600 nm = 0.25, read from FIG. 2, chloramphenicol:nanomaterial w/w 1:10
Experimental: In step (3), to test the antimicrobial efficiency, solution of E. coli cells were inoculated into fresh LB medium and incubated at 37° C. overnight. In one embodiment, 5µL solution of E. coli cells was inoculated into 2 ml of fresh LB medium. Sample of the overnight culture was transferred into each well of a 96-well plate and further grown with 200 µL fresh LB medium. To test antimicrobial activities, different concentrations of antimicrobial agents alone, TiO2 alone, and TiO2 nanowires - chloramphenicol complex were added to the LB medium with E. coli cells. It should be noted that same procedure was followed to prepare different concentrations (1, 2, 3, 4, and 5 µg/ml) of either chloramphenicol alone, nanomaterials alone or a mixture of both. Three identical replicates were prepared on the plate for each assigned material. Then, the 96-well plates were sealed with an oxygen-permeable membrane and the cell growth was monitored by reading the absorbance at 600 nm with microplate readers at 37° C. continuously. Equal amounts of chloramphenicol were mixed with each sample of the assigned version of nanomaterials (Na-TiO2 and K-TiO2) with a w/w ratio of 1:10. […]

## O=C(N[C@H](CO)[C@H](O)c1ccc([N+](=O)[O-])cc1)C(Cl)Cl [chloramphenicol]
  concentration of chloramphenicol necessary to reach the same O.D. reading 0.25 (same degree of antimicrobial activity): 5 µg/mL
